Series [1] relates to HUVEC. Briefly: Anti-ferroptosis activity against […]-induced ferroptosis in HUVEC cells assessed as increase in cell viability at 10 uM incubated for 24 hrs by SRB assay. The note with it: Homo sapiens. It counts as functional, cell-based.
Series [2] has as its system HUVEC. Briefly: Anti-ferroptosis activity against […]-induced ferroptosis in HUVEC cells assessed as increase in cell viability incubated for 24 hrs by SRB assay. It counts as functional, cell-based. The note with it: Homo sapiens.
Series [3] deals with HUVEC. Briefly: Anti-ferroptosis activity against erastin-induced ferroptosis in HUVEC cells assessed as decrease in free ferrous ion level at 10 uM incubated for 24 hrs by Ferro orange fluorescent probe based assay. The series is classed as functional, cell-based. The note with it: Homo sapiens.
The subject of series [4] is HUVEC. Briefly: Anti-ferroptosis activity against erastin-induced ferroptosis in HUVEC cells assessed as decrease in intracellular lipid ROS level at 10 uM incubated for 24 hrs by BODIPY 581/591 dye based assay. It counts as functional, cell-based. The note with it: Homo sapiens.
The subject of series [5] is HUVEC. Briefly: Anti-ferroptosis activity against erastin-induced ferroptosis in HUVEC cells assessed as reduction in accumulation of lipid peroxidation at 10 uM incubated for 24 hrs by LPO assay. It counts as functional, cell-based. The note with it: Homo sapiens.
In series [6] the test system is HUVEC. Briefly: Anti-ferroptosis activity against erastin-induced ferroptosis in HUVEC cells assessed as reduction in malondialdehyde content at 10 uM incubated for 24 hrs by lipid peroxidation MDA assay. The series is classed as functional, cell-based. The note with it: Homo sapiens.
Series [7] concerns HUVEC. In words: Anti-ferroptosis activity against erastin-induced ferroptosis in HUVEC cells assessed as upregulation of intracellular GSH level at 10 uM incubated for 24 hrs. The series is classed as functional, cell-based. The note with it: Homo sapiens.
The subject of series [8] is HUVEC. Briefly: Anti-ferroptosis activity against erastin-induced ferroptosis in HUVEC cells assessed as upregulation of intracellular GPX4 level at 10 uM incubated for 24 hrs by Western blot analysis. The series is classed as functional, cell-based. The note with it: Homo sapiens.
A short description of series [9]: Kinetic solubility of compound. It counts as physicochemical. The note with it: read-out: Kinetic_solubility.
Series [10] is described as follows: Metabolic stability in human liver microsomes assessed as half-life. The series is classed as ADME, Microsome.
A short description of series [11]: Metabolic stability in mouse liver microsomes assessed as half-life. The series is classed as ADME, Microsome.
Series [12] in a line: Stability in mouse plasma assessed as parent compound remaining measured after 6 hrs. It counts as ADME, cell-free. The note with it: read-out: Stability.

Values after ≈ are worked out from the molar mass of the structure shown. Active and inactive are the calls of the source. The rule behind the calls is not given here.

Regarding `CCNC(=O)c1ccc(NC2CCCCC2)c(NC(=O)/C=C/c2cccc(Br)c2)c1`, the result in series [1] was Active.
On the same count and under the same terms, the same measure for `CCNC(=O)c1ccc(NC2CCCCC2)c(NC(=O)/C=C/c2ccc(O)c(OC)c2)c1`: “Active”; for `CCNC(=O)c1ccc(NC2CCCCC2)c(NC(=O)Cc2ccc(C)cc2)c1`: “inactive”.
In the case of `CCNC(=O)c1ccc(NC2CCCCC2)c(NC(=O)Cc2ccc(F)cc2)c1`, in series [1], the result was Active.
Turning to `CCNC(=O)c1ccc(NC2CCCCC2)c(NC(=O)/C=C/c2ccccc2OC)c1`, the Activity entry in series [1] is “Active; Compound Exhibited Comparable Activity To Ferrostatin-1”. Further, the EC50 in [2] came out at 1100 nM.
For `CCNC(=O)c1ccc(NC2CCCCC2)c(NC(=O)C(c2ccccc2)c2ccccc2)c1`, the Activity result in [1] was “Active; Compound Exhibited Comparable Activity To Ferrostatin-1”. In [2], the EC50 is 1000 nM.
Turning to `CCNC(=O)c1ccc(NC2CCCCC2)c(NC(=O)Cc2cc(F)c(F)cc2Br)c1`, the Activity entry in series [1] is “Active; Compound Exhibited Comparable Activity To Ferrostatin-1”. In addition, the EC50 in series [2] amounted to 810 nM.
With `CCNC(=O)c1ccc(NC2CCCCC2)c(NC(=O)Cc2ccc(OC)c(Br)c2)c1`, in [1], the outcome was inactive.
Take `CCNC(=O)c1ccc(NC2CCCCC2)c(NC(=O)Cc2ccc(OC)cc2)c1`: the Activity result in series [1] is reported as “Active; Compound Exhibited Comparable Activity To Ferrostatin-1”. The EC50 in [2] came out at 980 nM.
As to `CCNC(=O)c1ccc(NC2CCCCC2)c(NC(=O)CCc2ccc(OC)cc2)c1`, in [1], the outcome was Active.
On to `CCNC(=O)c1ccc(NC2CCCCC2)c(NC(=O)Cc2cccc(OC)c2)c1`, for which, in [1], the outcome was Active.
As to `CCNC(=O)c1ccc(NC2CCCCC2)c(NC(=O)Cc2ccc(OC)c(OC)c2)c1`, the outcome in series [1] was Active.
Take `CCNC(=O)c1ccc(NC2CCCCC2)c(NC(=O)/C=C/c2ccccc2)c1`: the Activity result in series [1] is reported as “Active; Compound Exhibited Comparable Activity To Ferrostatin-1”. Moreover, the EC50 in series [2] turned out to be 900 nM.
With `CCNC(=O)c1ccc(NC2CCCCC2)c(NC(=O)Cc2cc(Br)ccc2Br)c1`, in series [1], the result was inactive.
Still for that read-out and setting: the same measure for `CCNC(=O)c1ccc(NC2CCCCC2)c(NC(=O)Cc2cc(Br)ccc2F)c1`: “Active”; for `CCNC(=O)c1ccc(NC2CCCCC2)c(NC(=O)Cc2cc(Br)cc(Br)c2)c1`: “Active”.
On to `CCNC(=O)c1ccc(NC2CCCCC2)c(NC(=O)/C=C/c2cc(OC)c(OC)cc2OC)c1`, for which the Activity result in [1] is on record as “Active; Compound Exhibited Comparable Activity To Ferrostatin-1; Most Significant Efficacy Observed”; in series [3], “Active; Higher Effectiveness Compared To Ferrostatin-1”. For the same molecule, the EC50 in series [2] was 580 nM. Also, the result in series [4], in series [5], in series [6], in series [7] and in series [8] was Active. The solubility kinetic in series [9] was determined as 33.3 µM (≈ 16 µg/mL). In addition, the half-life in series [10] was 62.7 min; in series [11], 31.4 min. Moreover, in series [12], the remaining at 6 h is 48%.
Consider `CCNC(=O)c1ccc(NC2CCCCC2)c(NC(=O)Cc2ccc(F)c(Br)c2)c1`, for which the outcome in series [1] was Active.
In the case of `CCNC(=O)c1ccc(NC2CCCCC2)c(NC(=O)Cc2cccc(Br)c2)c1`, the result in series [1] was inactive.
Regarding `CCNC(=O)c1ccc(NC2CCCCC2)c(NCc2ccccc2)c1`, in [1], the Activity entry is reported as “Active; Compound Exhibited Comparable Activity To Ferrostatin-1”. Also, the EC50 in series [2] is 6200 nM. Moreover, the solubility kinetic in series [9] stood at 50 µM (≈ 17.6 µg/mL). Also, the half-life stood at 38.9 min in series [10] and 19.6 min in series [11]. The remaining at 6 h in [12] was found to be 0%.
In the case of `CCNC(=O)c1ccc(NC2CCCCC2)c(NC(=O)/C=C/c2cccc(OC)c2OC)c1`, in series [1], the outcome was Active.
Still for that read-out and setting: the same measure for `CCNC(=O)c1ccc(NC2CCCCC2)c(NC(=O)Cc2cc(OC)c(OC)c(OC)c2)c1`: “inactive”.
Take `CCOC(=O)c1ccc(NC2CCCCC2)c(N)c1`: the outcome in [1], in [3], in series [4], in series [5], in series [6] and in [7] was Active. Further, in [8], the outcome was Active. Besides, the solubility kinetic in series [9] was more than 200 µM. The half-life in series [10] came out at 16.8 min; in [11] it was 2.7 min. Further, the remaining at 6 h in series [12] amounted to 18%.

The values above are taken from ChEMBL document CHEMBL6083230, “Synthesis and biological evaluation of ferrostatin-based diamide derivatives as new ferroptosis inhibitors” (Bioorg Med Chem Lett, 2024).
